Where two headings read alike, the source gives them in different places.
Experiments:
Mouse kidney M-1 cells = experiment: Ussing Chamber assay, short circuit current in M-1 cells; type: cell-based; settings: inhibition of amiloride sensitive short circuit current (I_sc), compounds applied to the apical solution, 37° C.
Method: Ussing Chamber: Mouse kidney M-1 cells were cultivated in DMEM containing 5% FCS and 5 μM dexamethasone for 10 to 12 days on polyester transwell filters. Filters were inserted into a teflon-coated well-plate which fit into the ussing chamber system. Prior to measurement the medium of M-1 cells was replaced with Caco-2 transport buffer (Invitrogen, Germany). During measurements, the Ussing chamber temperature was kept at 37° C. Short circuit currents (I_sc) were measured in the voltage-clamp mode using an amplifier with the software package Lab View for data acquisition and analysis. The transepithelial electrical resistance (TEER) was determined by the application of voltage steps of ±5 mV every 5 sec. Compounds were administered at a final concentration of 3 μM or at increasing concentrations (e.g. 1-3-10 μM) to the apical solution. At the end of each experiment the amiloride sensitive I_SC was measured by adding 3 μM amiloride to the apical compartment. Results are expressed as inhibition in percent of the amiloride effect or as IC50.
With the example compounds given above, the following IC50 values given in Table 1 were determined in the Ussing Chamber assay: […]

[1] = Permeability and efflux in CALU-3 cells; type: in vitro ADME; settings: human, Papp basal-to-apical, CALU-3 monolayers, pH 7.4, 37° C., 10 μM compound, read-out: P BA
Method: Permeability and Efflux in CALU-3 Cells:
Permeability measurements across polarized, confluent CALU-3 cell monolayers grown on permeable filter supports are used to provide information on the potential of a compound to pass the lung epithelium.
CALU-3 cells (1-2×10^5 cells/1 cm^2 area) are seeded on filter inserts (Costar transwell polycarbonate filters, 0.4 μm pore size) and cultured (DMEM) for 10-12 days until tight monolayers are formed. Compounds of interest are dissolved in appropriate solvent (DMSO, 10 mM stock solution). Stock solutions are diluted with HTP-4 buffer (128.13 mM NaCl, 5.36 mM KCl, 1 mM MgSO4, 1.8 mM CaCl2, 4.17 mM NaHCO3, 1.19 mM Na2HPO4×7H2O, 0.41 mM NaH2PO4×H2O, 15 mM HEPES, 20 mM glucose, 0.25% BSA, pH 7.4) to prepare the transport solutions (10 μM compound, final DMSO<=0.5%). The transport solution (TL) is applied to the apical or basolateral donor side for measuring A-B or B-A permeability (3 filter replicates), respectively. The receiver side contains the same buffer as the donor side. After 30 min of accommodation, samples are collected at the start t0=0 min and at the end of the experiment tn=90 min from the donor and at 0, 30, 60, and 90 min also from the receiver chamber. Volume removed is replenished by HTP-4 buffer. The compound concentration in the samples is measured by HPLC-MS/MS or scintillation counting. The permeability coefficient (Papp) and efflux ratio are calculated according to: Papp [cm/s]=(concentration receiver [nM]*volume receiver [mL]/time interval [sec])*(1/filter area)*(1/donor concentration [nM]) Efflux ratio or Uptake ratio=Papp,BA/Papp,AB

Work on COC(=O)CN(C)[C@H]1CC[C@H](N/C(N)=N/C(=O)c2nc(Cl)c(N)nc2N)CC1 [Example 1.1] yielded an IC50 (Mouse kidney M-1 cells) of 7 nM.
Compound N/C(=N\C(=O)c1nc(Cl)c(N)nc1N)N[C@H]1CC[C@H](NC(=O)CN(CC(=O)O)CC(=O)O)CC1 [Example 2.1] has an IC50 (Mouse kidney M-1 cells) of 304 nM.
Compound C[N+]1(C)CCN(CC(=O)N[C@H]2CC[C@H](N/C(N)=N/C(=O)c3nc(Cl)c(N)nc3N)CC2)CC1.[I-] [Example 3.1] has an IC50 (Mouse kidney M-1 cells) of 25 nM and a Papp B→A at 90 min, 10 μM ([1]; exponent E−07) of 0.229 ×10⁻⁶ cm/s.
Compound CN(C)CCCN[C@H]1CC[C@H](N/C(N)=N/C(=O)c2nc(Cl)c(N)nc2N)CC1 [Example 4.1] has an IC50 (Mouse kidney M-1 cells) of 31 nM and a Papp B→A at 90 min, 10 μM ([1]; exponent E−06 printed in the row below (r3)) of under 2.72 ×10⁻⁶ cm/s.
In the case of CC(C)(C)OC(=O)c1ccc(C(=O)N[C@H]2CC[C@H](N/C(N)=N/C(=O)c3nc(Cl)c(N)nc3N)CC2)cc1 [Example 5.1], the IC50 (Mouse kidney M-1 cells) is reported as 10 nM.
With C[C@@H](N)C(=O)N[C@H]1CC[C@H](N/C(N)=N/C(=O)c2nc(Cl)c(N)nc2N)CC1.O=C(O)C(F)(F)F [Example 6.1] the IC50 (Mouse kidney M-1 cells) was 34 nM and the Papp B→A at 90 min, 10 μM ([1]; exponent E−07) was 0.225 ×10⁻⁶ cm/s.
N/C(=N\C(=O)c1nc(Cl)c(N)nc1N)N[C@H]1CC[C@H](N)CC1 [Example 6.2] gave an IC50 (Mouse kidney M-1 cells) of 6 nM and a Papp B→A at 90 min, 10 μM ([1]; exponent E−07) of under 0.272 ×10⁻⁶ cm/s.
For N=C(N)N[C@H]1CC[C@H](N/C(N)=N/C(=O)c2nc(Cl)c(N)nc2N)CC1 [Example 7], the IC50 (Mouse kidney M-1 cells) was 10 nM.
In the case of CN1CCN(S(=O)(=O)N[C@H]2CC[C@H](N/C(N)=N/C(=O)c3nc(Cl)c(N)nc3N)CC2)CC1.O=C(O)C(F)(F)F [Example 8], the IC50 (Mouse kidney M-1 cells) is reported as 25 nM and the Papp B→A at 90 min, 10 μM ([1]; exponent E−07) is reported as 0.354 ×10⁻⁶ cm/s.
